Source: patent publication US20080260720A1, “Systems and Methods for Inhibiting Metastasis” (priority 2004, published 2008)

Tests used:
Format in all cases: cell-based
[1] = test system: MB-MDA-435 breast cancer cells expressing E-cadherin; test: Wound-filling (cell migration) assay, G12-stimulated cell escape; conditions: MB-MDA-435 cells with E-cadherin and mutationally-activated Gα12; free-migrating cells 39 h after wounding
Protocol: To determine whether G12 proteins could influence cadherin-mediated suppression of cell migration, wound-filling assays using MB-MDA-435 breast cancer cells expressing E-cadherin were conducted. This system is believed to mimic the escape of potentially metastatic cells from the primary tumor. When a monolayer of cells was wounded by scraping, MB-MDA-435 cells lacking E-cadherin (435-puro) frequently broke free from the advancing “wall” of cells and migrated into the wound area as lone or “free migrating” cells.
Wound-filling assays were performed using MB-MDA-435 cells harboring E-cadherin (435-E-cad) or a control plasmid (435-puro), that were infected 40 h earlier with recombinant adenoviruses expressing either mutationally-activated Gα12 (12^QL) or mutationally-activated Gαi2 (control). Cells were visualized by fluorescence microscopy for GFP expression (indicative of successful adenovirus infection). Cells were photographed at time of initial wounding, performed by scraping cell monolayers with a pipette tip and marling the wounded areas for orientation. Marked areas were re-photographed 39 h after wounding (lower panels). […] Data from 5 randomly selected view fields are presented as mean ±S.E. for each condition. E-cadherin lacking the G12-interacting region fails to suppress cell migration. […]

[2] = test system: MB-MDA-231 cell line; test: Matrigel invasion assay, MB-MDA-231; conditions: 50 nM thrombin, 24 hrs, MB-MDA-231 cells, Cyquant quantification
Protocol: (§1) To examine the role of G12/13 in breast cancer invasion, the Matrigel (BD biosciences) invasion assay was used. In this assay, transwell migration chambers are coated with Matrigel, an artificial extracellular matrix believed to closely resemble basal lamina in structure and content. Cells are then plated on top of this matrix and allowed to invade the matrigel and migrate to the underside of the membrane. The cells that reach the underside of the membrane are then quantified as a measure of invasiveness. This system serves as a model for primary tumor invasion, as the matrix mimics the microenvironment through which the cancer cells must pass in order to metastasize.
(§2) MB-MDA-231 and MCF-7 cells were plated on top of a Matrigel (BD Biosciences) coated polycarbonate filter (8.0 μM pore). The filter was transferred to a chamber containing 0.1% BSA-DMEM and the cells were allowed to adhere for 1 hr. The cells were then stimulated with 50 nM thrombin. After 24 hrs, the cells were detached from the underside of the filter and quantified using the Cyquant (Molecular Probes) cell enmieration kit. […] Using retrovirus, stable MB-MDA-231 cell lines expressing p115RGS, RGS2 (see text) or the appropriate vector control were generated. Invasion assays were then preformed as in (a) using these cells.

[3] = test system: MCF-7 cell line; test: Matrigel invasion assay, MCF-7; conditions: 50 nM thrombin, 24 hrs, MCF-7 cells, Cyquant quantification
Protocol: as §1, §2

Compound	effect on the G12-stimulated cell escape [1]	invasion through Matrigel [2]	invasion through Matrigel [3]
C[C@@H](N)[C@H]1CC[C@H](C(=O)Nc2ccncc2)CC1 [Y27632]	no effect		
thrombin		stimulates invasion	not
